Several values for one entry are separate records, joined by “and”; a condition that tells them apart may be missing. Identical values can stand only once. Inconclusive results and toxic doses are left out.

The experiment concerns BDF1 mice, B16 melanoma ip, median survival T/C. The experiment in a line: NCI In Vivo Anticancer Drug Screen. Data for tumor model B16 Melanoma (intraperitoneal) in B6D2F1 (BDF1) mice. The conditions noted are these: endpoint: median survival time, higher = longer survival. Put shortly: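 Antitumor activity is assessed in mice bearing a transplanted tumor, with survival or tumor size compared against vehicle-dosed controls and expressed as T/C.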

Where [1] appears, read: dose: 6.25 mg/kg/injection, schedule: Q01DX009 (ip), vehicle: Klucel (hydroxypropylcellulose) (HPC).
[2] abbreviates: dose: 12.5 mg/kg/injection, schedule: Q01DX009 (ip), vehicle: Klucel (hydroxypropylcellulose) (HPC).
[3] abbreviates: dose: 100.0 mg/kg/injection, schedule: Q01DX009 (ip), vehicle: saline with Tween-80.
The mark [4] stands for this setting: dose: 200.0 mg/kg/injection, schedule: Q01DX009 (ip), vehicle: saline with Tween-80.
[5] abbreviates: dose: 100.0 mg/kg/injection, schedule: Q01DX009 (ip), vehicle: Klucel (hydroxypropylcellulose) (HPC).
Where [6] appears, read: dose: 200.0 mg/kg/injection, schedule: Q01DX009 (ip), vehicle: Klucel (hydroxypropylcellulose) (HPC).
The mark [7] stands for this setting: dose: 50.0 mg/kg/injection, schedule: Q01DX009 (ip), vehicle: saline with Tween-80.
[8] abbreviates: dose: 0.5 mg/kg/injection, schedule: Q01DX009 (ip), vehicle: water.

Regarding `CCN(CC)CCCC(C)NC(C)CCCN(CC)CC` (stereo not drawn), the T/C runs as follows: under setting [1], 101 % of control; (dose: 6.25 mg/kg/injection, schedule: Q01DX009 (ip), vehicle: water) 98 % of control; under setting [2], 95 % of control; (dose: 12.5 mg/kg/injection, schedule: Q01DX009 (ip), vehicle: water) 100 % of control.

As to `Nc1cc(S(N)(=O)=O)ccc1SSc1ccc(S(N)(=O)=O)cc1N`, the T/C under setting [3] is 95 % of control and the T/C under setting [4] was 93 % of control.

As to `CCCCCCCC(=O)O[C@H]1[C@H]2[C@@H](CC1(C)C)C(=O)[C@]13O[C@H]1C(=O)[C@]1(CO1)[C@]23C`, the T/C by setting is: (dose: 0.31 mg/kg/injection, schedule: Q01DX009 (ip), vehicle: Klucel (hydroxypropylcellulose) (HPC)) 98 % of control; (dose: 0.63 mg/kg/injection, schedule: Q01DX009 (ip), vehicle: Klucel (hydroxypropylcellulose) (HPC)) 102 % of control; (dose: 0.63 mg/kg/injection, schedule: Q01DX009 (ip), vehicle: saline with Tween-80) 92 % of control; (dose: 1.25 mg/kg/injection, schedule: Q01DX009 (ip), vehicle: Klucel (hydroxypropylcellulose) (HPC)) 100 % of control; (dose: 1.25 mg/kg/injection, schedule: Q01DX009 (ip), vehicle: saline with Tween-80) 89 % of control; (dose: 2.5 mg/kg/injection, schedule: Q01DX009 (ip), vehicle: Klucel (hydroxypropylcellulose) (HPC)) 98 % of control. Moreover, the T/C is, setting by setting: (dose: 2.5 mg/kg/injection, schedule: Q01DX009 (ip), vehicle: saline with Tween-80) 92 % of control; (dose: 5.0 mg/kg/injection, schedule: Q01DX009 (ip), vehicle: Klucel (hydroxypropylcellulose) (HPC)) 90 % of control; (dose: 10.0 mg/kg/injection, schedule: Q01DX009 (ip), vehicle: Klucel (hydroxypropylcellulose) (HPC)) 86 % of control.

Turning to `Cc1cccc(NC(=O)Nc2ccccc2Cl)n1`, the T/C runs as follows: (dose: 50.0 mg/kg/injection, schedule: Q01DX009 (ip), vehicle: Klucel (hydroxypropylcellulose) (HPC)) 90 % of control; under setting [5], 94 % of control; under setting [6], 94 % of control.

With `O=C(O)CC1(CC(=O)O)CCCCC1`, the T/C is 100 % of control under setting [7] and 98 % of control under setting [3].

On to `OCCN1CCN(CCCN2c3ccccc3Sc3ccc(C(F)(F)F)cc32)CC1`, for which the T/C is, setting by setting: (dose: 0.04 mg/kg/injection, schedule: Q01DX009 (ip), vehicle: saline) 91 % of control; (dose: 0.09 mg/kg/injection, schedule: Q01DX009 (ip), vehicle: saline) 90 % of control and 106 % of control; (dose: 0.19 mg/kg/injection, schedule: Q01DX009 (ip), vehicle: saline) 102 % of control and 93 % of control; (dose: 0.39 mg/kg/injection, schedule: Q01DX009 (ip), vehicle: saline) 103 % of control and 109 % of control; (dose: 0.78 mg/kg/injection, schedule: Q01DX009 (ip), vehicle: saline) 99 % of control and 91 % of control; (dose: 1.56 mg/kg/injection, schedule: Q01DX009 (ip), vehicle: saline) 97 % of control.

Take `O=C(Nc1ccccc1)OCCOc1ccc(Cl)cc1Cl`: the T/C is 96 % of control under setting [5]; 114 % of control under setting [6]; 110 % of control (dose: 400.0 mg/kg/injection, schedule: Q01DX009 (ip), vehicle: Klucel (hydroxypropylcellulose) (HPC)).

Turning to `Cc1cc(C)c([I+]c2c(C)cc(C)cc2C)c(C)c1`, the T/C reads like this: (dose: 1.5 mg/kg/injection, schedule: Q01DX009 (ip), vehicle: suspension in saline) 103 % of control; (dose: 3.0 mg/kg/injection, schedule: Q01DX009 (ip), vehicle: Klucel (hydroxypropylcellulose) (HPC)) 91 % of control; (dose: 3.0 mg/kg/injection, schedule: Q01DX009 (ip), vehicle: suspension in saline) 95 % of control; (dose: 6.0 mg/kg/injection, schedule: Q01DX009 (ip), vehicle: Klucel (hydroxypropylcellulose) (HPC)) 91 % of control; (dose: 6.0 mg/kg/injection, schedule: Q01DX009 (ip), vehicle: suspension in saline) 100 % of control.

Consider `N#Cc1cccnc1.NCCNCCN.[Br-].[Pt+4]`, for which the T/C by setting is: (dose: 12.5 mg/kg/injection, schedule: Q01DX009 (ip), vehicle: saline) 100 % of control; (dose: 25.0 mg/kg/injection, schedule: Q01DX009 (ip), vehicle: saline) 94 % of control; (dose: 50.0 mg/kg/injection, schedule: Q01DX009 (ip), vehicle: saline) 99 % of control; (dose: 100.0 mg/kg/injection, schedule: Q01DX009 (ip), vehicle: saline) 99 % of control; (dose: 200.0 mg/kg/injection, schedule: Q01DX009 (ip), vehicle: saline) 89 % of control.

Turning to `CCN(CC)C1CC(O[C@H]2C[C@](O)(C(C)=O)Cc3c(O)c4c(c(O)c32)C(=O)c2c(OC)cccc2C4=O)OC(C)C1O` (stereo partly drawn), the T/C (dose: 0.25 mg/kg/injection, schedule: Q01DX009 (ip), vehicle: water) was 113 % of control and the T/C under setting [8] is 119 % of control.

Turning to `OCCNCc1ccc(Cl)cc1`, the T/C is, setting by setting: under setting [7], 104 % of control; under setting [3], 109 % of control; under setting [4], 103 % of control.

Regarding `COC12C(COC(N)=O)C3=C(C(=O)C(C)=C(N)C3=O)N1CC1C2N1C` (stereo not drawn), the T/C was 120 % of control (dose: 0.25 mg/kg/injection, schedule: Q01DX009 (ip), vehicle: saline); 123 % of control (dose: 0.5 mg/kg/injection, schedule: Q01DX009 (ip), vehicle: saline); 114 % of control (dose: 1.0 mg/kg/injection, schedule: Q01DX009 (ip), vehicle: saline); 106 % of control (dose: 2.0 mg/kg/injection, schedule: Q01DX009 (ip), vehicle: Klucel (hydroxypropylcellulose) (HPC)); 124 % of control (dose: 4.0 mg/kg/injection, schedule: Q01DX009 (ip), vehicle: Klucel (hydroxypropylcellulose) (HPC)).

As for `COc1cc2ccc3c(c2cc1OC)N(C)C(OC)c1cc2c(cc1-3)OCO2` (stereo not drawn), the T/C (dose: 10.0 mg/kg/injection, schedule: Q01DX009 (ip), vehicle: saline with Tween-80) is 119 % of control.

For `COc1cccc2c1C(=O)c1c(O)c3c(c(O)c1C2=O)C[C@@](O)(/C(C)=N/NC(=O)c1ccccc1)C[C@@H]3OC1CC(N)C(O)C(C)O1` (stereo partly drawn), the T/C is 118 % of control under setting [8]; 156 % of control (dose: 0.75 mg/kg/injection, schedule: Q01DX009 (ip), vehicle: saline); 156 % of control and 167 % of control and 202 % of control (dose: 1.5 mg/kg/injection, schedule: Q01DX009 (ip), vehicle: saline); 158 % of control and 165 % of control (dose: 2.0 mg/kg/injection, schedule: Q01DX001 (ip), vehicle: water); 181 % of control (dose: 2.0 mg/kg/injection, schedule: Q01DX009 (ip), vehicle: water); 186 % of control and 200 % of control and 226 % of control (dose: 3.0 mg/kg/injection, schedule: Q01DX009 (ip), vehicle: saline). The T/C is, setting by setting: (dose: 3.0 mg/kg/injection, schedule: Q04DX003 (ip), vehicle: saline) 165 % of control and 172 % of control; (dose: 4.0 mg/kg/injection, schedule: Q01DX001 (ip), vehicle: water) 161 % of control and 162 % of control and 202 % of control; (dose: 4.0 mg/kg/injection, schedule: Q01DX009 (ip), vehicle: water) 172 % of control; (dose: 6.0 mg/kg/injection, schedule: Q01DX009 (ip), vehicle: saline) 191 % of control and 202 % of control and 272 % of control; (dose: 6.0 mg/kg/injection, schedule: Q04DX003 (ip), vehicle: saline) 161 % of control and 193 % of control and 260 % of control; (dose: 8.0 mg/kg/injection, schedule: Q01DX001 (ip), vehicle: water) 186 % of control and 211 % of control and 275 % of control. Also, the T/C was 245 % of control (dose: 8.0 mg/kg/injection, schedule: Q01DX009 (ip), vehicle: water); 155 % of control and 215 % of control and 260 % of control (dose: 12.0 mg/kg/injection, schedule: Q04DX003 (ip), vehicle: saline); 178 % of control and 282 % of control and 287 % of control (dose: 16.0 mg/kg/injection, schedule: Q01DX001 (ip), vehicle: water).

Turning to `CC(C)CC(NC(=O)C(N)C(C)C)C(=O)NC(CCCCN)C(=O)Nc1ccc(N(CCCl)CCCl)cc1` (stereo not drawn), the T/C reads like this: (dose: 0.74 mg/kg/injection, schedule: Q01DX009 (ip), vehicle: saline) 105 % of control; (dose: 1.49 mg/kg/injection, schedule: Q01DX009 (ip), vehicle: saline) 109 % of control and 120 % of control; (dose: 5.95 mg/kg/injection, schedule: Q01DX009 (ip), vehicle: saline) 159 % of control and 182 % of control.

`C=CCNc1ccc(OC)cc1`: the T/C runs as follows: under setting [7], 95 % of control; under setting [3], 107 % of control.

Take `CCCN(C(=O)CCl)c1ccccc1`: the T/C was 94 % of control (dose: 3.13 mg/kg/injection, schedule: Q01DX009 (ip), vehicle: Klucel (hydroxypropylcellulose) (HPC)); 91 % of control under setting [1]; 92 % of control under setting [2].

The values are drawn from PubChem BioAssay AID192 (DTP/NCI, 2004).
